Converted amounts (≈) assume the structure as drawn. Read-outs that look alike come from different tables or passages of the source.
Assays:
Pyricularia oryzae [1] = assay type: in vivo; conditions: preventive
[2] = tested on: rice plants (var.: Kinki No. 33); conditions: preventive test
Pyricularia oryzae [3] = assay type: in vivo
[4] = tested on: rice plants (var.: Kinki No. 33)
Pyricularia oryzae [5] = assay: microbe, parasite or virus in culture; assay type: cell-based; conditions: for Diameter of mycelium / Diameter of mycelium (symbol): 27° C., 2 weeks; for Diameter of mycelium: untreated 63.5 m/m; for MIC: Pyricularia oryzae, 336 h, read-out: MIC (minimum inhibitory concentration on mycelial growth)
[6] = concentration of active ingredient 100 ppm
[7] = curative, concentration of active ingredient 20 ppm
[8] = curative, concentration of active ingredient 200 ppm
[9] = concentration of active ingredient 500 ppm
[10] = curative, concentration of active ingredient 500 ppm

Compound	Disease control (Pyricularia oryzae [1]; [6])	Disease severity (Pyricularia oryzae [1]; [6])	Phytotoxicity ([2]; 100 ppm)	Disease control (Pyricularia oryzae [3]; [8])	Disease severity (Pyricularia oryzae [3]; [8])	Diameter of mycelium (Pyricularia oryzae [5]; 2 ppm)	Diameter of mycelium (Pyricularia oryzae [5]; 10 ppm)	Diameter of mycelium (Pyricularia oryzae [5]; 50 ppm)	Diameter of mycelium (Pyricularia oryzae [5]; 250 ppm)	MIC (Pyricularia oryzae [5])	also measured
CC(C)OP(=O)(OC(C)C)SCc1ccccc1 [Commercial fungicide A, 0,0-diisopropyl-S-benzylphosphorothioate, reference compound]	92%	7.5%	no	–	–	–	–	–	–	–	–
C[C@H]1O[C@H](OC2[C@@H](O)[C@@H](O)C(O)[C@H](O)[C@H]2O)[C@@H](N)C[C@@H]1N=C(N)C(=O)O.Cl (stereo partly drawn) [Commercial fungicide B, Kasugamycin hydrochloride, reference compound]	–	–	–	–	–	–	–	–	–	–	Disease control (Pyricularia oryzae [3]; [7]): 82%; Disease severity (Pyricularia oryzae [3]; [7]): 17.5%
CCOP(=O)(Sc1ccccc1)Sc1ccccc1 [Commercial fungicide C, O-ethyl-S,S-diphenyl-phosphorodithiolate, reference compound]	–	–	–	–	–	–	–	–	–	–	Disease control (Pyricularia oryzae [3]; in vivo): 92%; Disease severity (Pyricularia oryzae [3]; in vivo): 7.5%; Phytotoxicity ([4]; in vivo): no
Cc1ccccc1C=C1CCOC1=O [Compound 1]	100%	0%	no	99%	1.3%	0 m/m	0 m/m	0 m/m	0 m/m	< 2 µg/mL	Phytotoxicity ([4]; curative test, 200 ppm): no
O=C1OCCC1=Cc1c(Cl)cccc1Cl [Compound 2, α-(2,6-dichlorobenzylidene)-γ-butyrolactone]	100%	0%	no	–	–	0 m/m	0 m/m	0 m/m	0 m/m	< 2 µg/mL	–
CC1CC(=Cc2c(F)cccc2Cl)C(=O)O1 (stereo not drawn) [Compound 3, α-(2-chloro-6-fluorobenzylidene)-γ-valerolactone]	100%	0%	no	100%	0%	0 m/m	0 m/m	0 m/m	0 m/m	< 2 µg/mL	–
Cc1cccc(C)c1C=C1CCOC1=O [Compound 4]	99%	1.3%	no	–	–	0 m/m	0 m/m	0 m/m	0 m/m	< 2 µg/mL	–
Cc1ccccc1C=C1CC(C)OC1=O (stereo not drawn) [Compound 5]	99%	1.3%	no	100%	0%	–	0 m/m	0 m/m	0 m/m	~2 µg/mL (≈ 9.89 µM)	Diameter of mycelium (symbol) (Pyricularia oryzae [5]; 2 ppm): ±
CC1CC(=Cc2ccccc2Cl)C(=O)O1 (stereo not drawn) [Compound 6, α-(o-chlorobenzylidene)-γ-valerolactone]	100%	0%	no	100%	0%	0 m/m	0 m/m	0 m/m	0 m/m	< 2 µg/mL	–
CC1CC(=Cc2ccccc2Br)C(=O)O1 (stereo not drawn) [Compound 7]	100%	0%	no	100%	0%	0 m/m	0 m/m	0 m/m	0 m/m	< 2 µg/mL	–
CC1CC(=Cc2c(Cl)cccc2Cl)C(=O)O1 (stereo not drawn) [Compound 8]	100%	0%	no	–	–	0 m/m	0 m/m	0 m/m	0 m/m	< 2 µg/mL	–
CCC1CC(=Cc2ccccc2Cl)C(=O)O1 (stereo not drawn) [Compound 9, α-(o-chlorobenzylidene)-γ-ethyl-γ-butyrolactone]	99%	1.3%	no	99%	1.3%	–	0 m/m	0 m/m	0 m/m	~2 µg/mL (≈ 8.45 µM)	Diameter of mycelium (symbol) (Pyricularia oryzae [5]; 2 ppm): ±
CC(C)(C)C1CC(=Cc2ccccc2Cl)C(=O)O1 (stereo not drawn) [Compound 10]	99%	1.3%	no	–	–	–	0 m/m	0 m/m	0 m/m	~2 µg/mL (≈ 7.55 µM)	Diameter of mycelium (symbol) (Pyricularia oryzae [5]; 2 ppm): ±
CC1(C)CC(=Cc2ccccc2Cl)C(=O)O1 [Compound 11]	99%	1.3%	no	–	–	–	0 m/m	0 m/m	0 m/m	~2 µg/mL (≈ 8.45 µM)	Diameter of mycelium (symbol) (Pyricularia oryzae [5]; 2 ppm): ±
Cc1ccccc1C=C1CC(C)(C)OC1=O [Compound 12, α-(o-methylbenzylidene)-γ-dimethyl-γ-butyrolactone]	97%	2.5%	no	–	–	2.0 m/m	0 m/m	0 m/m	0 m/m	2 µg/mL (≈ 9.25 µM)	–
CC1CC(=Cc2ccccc2C(C)C)C(=O)O1 (stereo not drawn) [Compound 13]	100%	0%	no	99%	1.3%	–	0 m/m	0 m/m	0 m/m	~2 µg/mL (≈ 8.68 µM)	Diameter of mycelium (symbol) (Pyricularia oryzae [5]; 2 ppm): ±
CCc1ccccc1C=C1CC(C)OC1=O (stereo not drawn) [Compound 14]	100%	0%	no	100%	0%	–	0 m/m	0 m/m	0 m/m	~2 µg/mL (≈ 9.25 µM)	Diameter of mycelium (symbol) (Pyricularia oryzae [5]; 2 ppm): ±
C=C1CCOC1=O [Control (i), reference compound]	–	–	–	–	–	–	–	–	–	–	Disease control (Pyricularia oryzae [1]; [9]): 0%; Disease severity (Pyricularia oryzae [1]; [9]): 100%; Phytotoxicity ([2]; 500 ppm): no
O=C1OCCC1=Cc1ccccc1 [Control (ii), reference compound]	–	–	–	–	–	68.5 m/m	49.0 m/m	35.5 m/m	–	~250 µg/mL (≈ 1440 µM)	Disease control (Pyricularia oryzae [3]; [10]): 0%; Disease severity (Pyricularia oryzae [3]; [10]): 97.5%; Disease control (Pyricularia oryzae [1]; [9]): 7%; Disease severity (Pyricularia oryzae [1]; [9]): 93.8%; Phytotoxicity ([2]; 500 ppm): no; Diameter of mycelium (symbol) (Pyricularia oryzae [5]; 250 ppm): ±
O=C1OCCC1=Cc1ccccc1O [Control (iii), reference compound]	–	–	–	–	–	65.0 m/m	55.0 m/m	40.0 m/m	11.0 m/m	> 250 µg/mL	Disease control (Pyricularia oryzae [3]; [10]): 0%; Disease severity (Pyricularia oryzae [3]; [10]): 97.5%; Disease control (Pyricularia oryzae [1]; [9]): 10%; Disease severity (Pyricularia oryzae [1]; [9]): 90.0%; Phytotoxicity ([2]; 500 ppm): no
COc1ccccc1C=C1CCOC1=O [Control (iv), reference compound]	–	–	–	–	–	63.0 m/m	48.5 m/m	31.5 m/m	–	~250 µg/mL (≈ 1220 µM)	Disease control (Pyricularia oryzae [3]; [10]): 0%; Disease severity (Pyricularia oryzae [3]; [10]): 100.0%; Disease control (Pyricularia oryzae [1]; [9]): 2%; Disease severity (Pyricularia oryzae [1]; [9]): 97.5%; Phytotoxicity ([2]; 500 ppm): no; Diameter of mycelium (symbol) (Pyricularia oryzae [5]; 250 ppm): ±; Phytotoxicity ([4]; curative test, 500 ppm): no
CC1CC(=Cc2ccccc2)C(=O)O1 (stereo not drawn) [Control (ix), reference compound]	–	–	–	–	–	–	–	–	–	–	Disease control (Pyricularia oryzae [1]; [9]): 10%; Disease severity (Pyricularia oryzae [1]; [9]): 90.0%; Phytotoxicity ([2]; 500 ppm): no
O=C1OCCC1=Cc1ccc([N+](=O)[O-])cc1 [Control (v), reference compound]	–	–	–	–	–	69.5 m/m	58.5 m/m	43.0 m/m	30.5 m/m	> 250 µg/mL	Disease control (Pyricularia oryzae [1]; [9]): 0%; Disease severity (Pyricularia oryzae [1]; [9]): 100.0%; Phytotoxicity ([2]; 500 ppm): no
O=C1OCCC1=Cc1ccc(Cl)cc1 [Control (vi), reference compound]	–	–	–	–	–	66.0 m/m	51.5 m/m	34.5 m/m	3.0 m/m	250 µg/mL (≈ 1200 µM)	Disease control (Pyricularia oryzae [3]; [10]): 0%; Disease severity (Pyricularia oryzae [3]; [10]): 100.0%; Disease control (Pyricularia oryzae [1]; [9]): 0%; Disease severity (Pyricularia oryzae [1]; [9]): 100.0%; Phytotoxicity ([2]; 500 ppm): no

Source: patent publication US3993771A (priority 1974, dated 1976)
